Values of other authors in article PMC6698915 (Cancer chemotherapy and pharmacology, 2015).

Tested on: patients with locally advanced (M0) head and neck cancer
Details: with cisplatin and docetaxel 75 mg/m^2 q21 days, pegfilgrastim, previously untreated; cited from earlier work

## CO[C@H]1C[C@@H]2CC[C@@H](C)[C@@](O)(O2)C(=O)C(=O)N2CCCC[C@H]2C(=O)O[C@H]([C@H](C)C[C@@H]2CC[C@@H](OCCO)[C@H](OC)C2)CC(=O)[C@H](C)/C=C(\C)[C@@H](O)[C@@H](OC)C(=O)[C@H](C)C[C@H](C)/C=C/C=C/C=C/1C [everolimus]
  escalation to full dose of daily everolimus: not possible to escalate to full dose of daily everolimus due to dose-limiting neutropenia
